Laboratory results as given in US11622961B2, “Combination therapies for treating cancer” (TESARO, INC., priority 2017, dated 2023).

Key:
[1] = system: MDA-MB-436
Excerpt: FIG. 5A depicts percentage of Ki67-positive CD4 and CD8 positive cells among total CD3 population in control or niraparib treated mice as assessed by flow cytometry.
FIG. 5B depicts tumor volume in MDA-MB-436 huNOG-EXL mice treated with niraparib or control.

[2] = system: primary Murine skin cancer model mSK6005; conditions: 50 mg/kg orally once daily for 21 days, compared to vehicle treated mice
Method: This example describes the effects of treatment with an agent that inhibits PARP signaling on tumor microenvironment in a mouse model of colorectal cancer. 50 mg/kg of niraparib or vehicle (0.5% methylcellulose) was orally administered once daily for 21 days to C57BL/6 mice inoculated with primary Murine skin cancer model mSK6005 fragment developed from Apc^Min/J heterozygous background. Formalin-fixed, paraffin-embedded (FFPE) blocks were prepared from tumor samples collected from the mice. Immunohistochemistry (IHC) staining was performed on FFPE samples to assess expression of various markers for immune response in the tumor samples. Five fields in each staining, without necrosis, were randomly selected and imaged at 20× magnification.
All the images were analyzed with Image J software. For CD4, CD8, and FoxP3 IHC, positive cells were counted and the average of 5 fields positive cell numbers was taken as the score value of each case. For Iba1 IHC, the percentage of Iba1 positive expression area or mean gray was measured and taken as the score value of each case. The percentages of tumor cells at different intensity levels were evaluated according to the calculation below. Total Score=(% at 0)×0+(% at 1)×1+(% at 2)×2+(% at 3)×3

[3] = crystalline solid; cited from earlier work
[4] = system: MDA-MB436 breast carcinoma cell line; assay: MDA-MB436 HuNOG-EXL mice treated with niraparib and BLZ945: tumor volume; assay type: in vivo; conditions: 200 mg/kg BLZ945 5 day on and 2 day off plus 80 mg/kg niraparib tosylate once daily, oral; FIG. 6A, 6B (day 26)
Method: This example describes the effects of treatment with an agent that inhibits PARP together with an agent that regulates activity in the tumor microenvironment in a mouse model of breast cancer. HuNOG-EXL mice inoculated with MDA-MB436 breast carcinoma cell line were orally administered: i) 80 mg/kg of niraparib tosylate once daily; ii) 200 mg/kg BLZ945 (an anti-CSF-1R that binds to CSF1R and inhibits CSF1R-mediated signal transduction pathways in tumor associated macrophages) on a 5 day on and 2 day off schedule; or iii) 80 mg/kg of niraparib tosylate and 200 mg/kg BLZ945 with the same dosing schedule as the single agent groups. Control mice were administered an isotype control antibody twice weekly via intraperitoneal injection.
Tumor volumes were recorded twice in a week with a gap of 2-3 days in between two measurements until tumor volume reached 600-1000 mm^3 in the control mice.

[5] = target: T1, CTLA-4 (Homo sapiens, UniProt P16410); conditions: biopsy samples taken after tremelimumab treatment; cited from earlier work
T1 construct: host or cells: metastatic melanoma patients (endogenous CTLA-4)
T1 sequence (P16410 36-223): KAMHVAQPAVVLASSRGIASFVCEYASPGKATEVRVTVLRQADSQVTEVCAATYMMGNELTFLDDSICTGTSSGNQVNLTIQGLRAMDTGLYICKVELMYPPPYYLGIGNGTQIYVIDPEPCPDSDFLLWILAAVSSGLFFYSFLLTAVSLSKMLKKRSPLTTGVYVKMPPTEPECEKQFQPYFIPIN

NC(=O)c1cccc2cn(-c3ccc([C@@H]4CCCNC4)cc3)nc12 [niraparib, (3S)-3-[4-{7-(aminocarbonyl)-2H-indazol-2-yl}phenyl]piperidine]
tumor growth ([1]; 35 mg/kg QD×5/week (FIG. 5B)): reduction of tumor growth | percentage of CD8+ cells ([1]; 35 mg/kg QD×5/week, flow cytometry (FIG. 5A)): increased percentage of CD8+ cells | expression of CD4 in tumor samples (IHC) [2]: Increased expression | expression of CD8 in tumor samples (IHC) [2]: Increased expression | expression of FoxP3 in tumor samples (IHC) [2]: Increased expression | expression of Iba1 in tumor samples (IHC) [2]: Increased expression

Cc1ccc(S(=O)(=O)O)cc1.NC(=O)c1cccc2cn(-c3ccc([C@@H]4CCCNC4)cc3)nc12.O [Niraparib tosylate monohydrate, (3 S)-3-[4-{7-(aminocarbonyl)-2H-indazol-2-yl}phenyl]piperidine tosylate monohydrate]
hygroscopicity of drug substance [3]: non-hygroscopic

CNC(=O)c1cc(Oc2ccc3nc(N[C@@H]4CCCC[C@H]4O)sc3c2)ccn1 [BLZ945]
anti-tumor activity of the combination (tumor volume) [4]: enhances anti-tumor activity of niraparib

tremelimumab: anti-CTLA-4 antibody
intratumoral infiltration by CD8+ cells [5]: highly significant increase
